# Measurements as given in PMC4355590, “A Kinetic Study of the Main Guaco Metabolites Using Syrup Formulation and the Identification of an Alternative Route of Coumarin Metabolism in Humans” (PLoS ONE, 2015).
# Values joined by “and” are separate entries in the source; they are usually repeats but may differ in a detail not shown here. Equal entries are not always repeated. Where two headings read alike, the source gives them in different places. Marks after values point to notes of the source that are not given here.
# Key:
# [1] = Pharmacokinetic study: volunteers orally received 60 mL of guaco syrup spiked with 1500 mg of COU, plasma by HPLC-MS/MS; type: in vivo, human
# From the text: The weight ranged from 63 to 88 kg and the height from 1.65 to 1.80 m. The volunteers were submitted to the medical consultations and clinical analyses before their participation in the study. Only healthy volunteers (normal values of blood pressure and renal, hepatic, biochemical and hematological parameters) were eligible to participate in the study. […] The volunteers were informed about all the procedures and possible risks related to the study. All the volunteers provided written informed consent to participate in the study. […] All the volunteers fasted for 8 h prior to the administration of guaco syrup and blood collection. […] The anticoagulant used was tetrasodium edetate. […] The pharmacokinetic analysis was performed using a non-compartmental model, considering an extravascular administration route and using WinNonlin Professional software, version 5.3. The relationships among the areas under the curves (r areas = AUC0-t/AUC0-inf), were used to confirm the suitability of the experimental design. […] All the frozen (-40°C) human plasma samples from the volunteers were thawed at room temperature, and a 200 μL aliquot was transferred into 2 mL plastic centrifuge tubes. The analytes were extracted as follows. The 200 μL aliquots of thawed samples were spiked with 50 μL of acetonitrile/water (70:30 v/v) and 50 μL of the working IS solution to obtain a final concentration of 500 ng/mL of 6-methylcoumarin. The spiked samples were vortexed for 2 min, and a 1.5 mL aliquot of TBME was added to the tube. The samples were vortexed for 2 min and then submitted to centrifugation for 10 min (14000 rpm, -5°C). A 1.2 mL aliquot of each sample supernatant was transferred to a new plastic centrifuge tube, and TBME was evaporated at 40°C in a sample concentrator (CentriVap Labconco, Kansas City, EUA). The remaining samples were resuspended in 200 μL of acetonitrile/water (70:30 v/v) using a vortex mixer for 3 min. The 200 μL aliquots of the thawed samples were spiked with 50 μL of acetonitrile/water (70:30 v/v) and 50 μL of the working IS solution to obtain a final concentration of 500 ng/mL of prednisone (IS) and 1000 ng/mL of isoferulic acid (IS). The spiked samples were vortexed for 2 min, and a 1.5 mL of acetonitrile was added to the tube. The samples were vortexed for 2 min and then were submitted to centrifugation for 10 min (14000 rpm, -5°C). Each sample supernatant was transferred to a new plastic centrifuge tube, and acetonitrile was evaporated in a sample concentrator (40°C). The samples were resuspended in 200 μL of acetonitrile/water (70:30 v/v) using a vortex mixer for 3 min. […] The HPLC was connected to a CTC Sample Manager (Model 2777, Waters Corporation, Milford, USA) that was operated at room temperature. Acetonitrile and methanol were used as wash solvents. The HPLC system was coupled to an Applied Biosystems MDS Sciex API 3200 Triple Quadrupole Mass Spectrometer (Toronto, Canada), equipped with a Harvard 22 Dual Model syringe pump (Harvard Apparatus, South Natick, USA) and an electrospray ionization (ESI) source. […] For the positive ion mode, the mobile phase consisted of acetonitrile/water/formic acid (70:30:0.05 v/v/v) at an elution rate of 200 μL/min in an isocratic system. For the negative ion mode, the mobile phase consisted of a gradient of water (A) and acetonitrile/water 95:5 v/v (B), both containing 1 mM ammonium formate. The flow rate was maintained at 400 μL/min, and the gradient profile was as follows: t0-1.0min: […] A = 70%; and t5.1-9.0min: A = 70%. […] The injection volume was 20 μL, and the column temperature was maintained at 25°C for positive ion mode and at 35°C for negative ion mode. Data acquisition was performed with the MS Workstation by Analyst software, version 1.4.2 (ABSciex). Quantification was performed in Multiple Reaction Monitoring (MRM) mode, maintaining the dwell time at 300 and 400 ms for the positive and negative ion modes, respectively. […]
# [2] = Initial screening of bioavailability: 60 mL of guaco syrup orally; type: in vivo, human; conditions: 60 mL guaco syrup (17.6 mg COU, 1.1 mg OCA, 8.9 mg KAU), up to 600 min
# Method: All the volunteers fasted for 8 h prior to the administration of guaco syrup and blood collection. […] The anticoagulant used was tetrasodium edetate. […] The pharmacokinetic analysis was performed using a non-compartmental model, considering an extravascular administration route and using WinNonlin Professional software, version 5.3. The relationships among the areas under the curves (r areas = AUC0-t/AUC0-inf), were used to confirm the suitability of the experimental design.
# [3] = Stability in human plasma: short-term, freeze-thaw and long-term; type: in vitro ADME; conditions: for Mean recovery: n = 8, ± SD
# Method: The samples were vortexed for 2 min and then were kept at room temperature for 8 h. Afterward, the samples were spiked with 50 μL of IS solution and were vortexed (2 min) and submitted to the extraction procedures. The short-term stability was evaluated by comparing the mean recovery of the analytes and the IS obtained from stored samples with the mean values obtained with freshly prepared samples, at same concentration levels.
# (§1) Freeze-thawed, post-preparative and long-term stability assay samples were prepared and evaluated similar to the short-term stability samples. However, the freeze thawing assay was assessed after undergoing three freeze-thaw cycles (one freeze-thaw cycle per day on three consecutive days) and post-preparative assay, maintaining the extracted samples for 24 hours in the Sample Manager (20°C, transparent vials). The long-term stability of human plasma stored at -40°C was assessed at the end of the study (60 days).
# [4] = Post-preparative stability of extracted samples; type: physicochemical; conditions: for Mean recovery: post-preparative: extracted samples 24 hours at 20°C, n = 8, ± SD; for RE: post-preparative
# Method: as §1
# [5] = both sexes, human, plasma, po, 1500 mg, human plasma, 60 mL guaco syrup spiked with 1500 mg coumarin, n = 5, mean ± S.D.
# [6] = both sexes, human, plasma, po, 1500 mg, human plasma, 60 mL guaco syrup spiked with 1500 mg coumarin, n = 5, mean ± S.D., read-out: Cmax
# [7] = both sexes, human plasma, oral, 60 mL guaco syrup spiked with 1500 mg coumarin, n = 5, mean ± S.D.
# [8] = human plasma, oral, 60 mL guaco syrup spiked with 1500 mg coumarin, n = 5, mean ± S.D.
# [9] = Long-term: plasma at -40°C, 60 days, high level (1250.0, 750.0, 750.0, 500.0 ng/mL)
# [10] = Long-term: plasma at -40°C, 60 days, low level (50.0, 12.5, 25.0, 10.0 ng/mL)
# [11] = Short-term: plasma at room temperature for 8 h, high level (1250.0, 750.0, 750.0, 500.0 ng/mL)
# [12] = Short-term: plasma at room temperature for 8 h, low level (50.0, 12.5, 25.0, 10.0 ng/mL)
# [13] = three freeze–thaw cycles, plasma, high level (1250.0, 750.0, 750.0, 500.0 ng/mL)
# [14] = three freeze–thaw cycles, plasma, low level (50.0, 12.5, 25.0, 10.0 ng/mL)
# [15] = high level (1250.0, 750.0, 750.0, 500.0 ng/mL)
# [16] = low level (50.0, 12.5, 25.0, 10.0 ng/mL)
SMILES,"half-life [1, 5]","Cmax [1, 6]","AUC(0-inf) [1, 7]","AUC(0-t) [1, 7]","Tmax [1, 7]","r areas (AUC0-t/AUC0-inf) [1, 8]",plasma levels after guaco syrup without spiking [2],"Mean recovery [3, 9]","Mean recovery [3, 10]","RE ([3]; Long-term, low level)","Mean recovery [3, 11]","Mean recovery [3, 12]","RE ([3]; Short-term, high level)","RE ([3]; Short-term, low level)","RE ([3]; freeze–thaw cycles, high level)","RE ([3]; freeze–thaw cycles, low level)","Mean recovery [3, 13]","Mean recovery [3, 14]","Mean recovery [4, 15]","Mean recovery [4, 16]",other results
"O=c1ccc2ccccc2o1 [COU, 1,2 benzopyrone]",~4 h,735 ng/mL,1460 ± 547 ng·h/mL,1340 ± 515 ng·h/mL,0.93 ± 0.57 h,0.92 ± 0.03,did not provide sufficient levels,1265.7 ± 99.2 ng/mL,45.1 ± 3.6 ng/mL,-9.71%,1205.5 ± 31.5 ng/mL,52.4 ± 1.7 ng/mL,-3.56%,4.81%,4.61%,7.62%,1307.7 ± 40.7 ng/mL,53.8 ± 2.7 ng/mL,1281.3 ± 44.2 ng/mL,47.6 ± 3.4 ng/mL,"clearance ([1]; both sexes, human, plasma, oral, 1500 mg, Cl/f multiplied by the bioavailability 0.034 of ref 32, read-out: estimated clearance (Cl = 1148.0 x 0.034) (converted)): 651 mL/min; Vd ([1]; both sexes, human, plasma, oral, 1500 mg, Vd/f multiplied by the bioavailability 0.034 of ref 32, read-out: estimated volume of distribution (Vd = 6733.0 x 0.034)): 229 L; Vd/F ([1]; both sexes, human plasma, oral, 60 mL guaco syrup spiked with 1500 mg coumarin, n = 5, mean ± S.D., read-out: Vd/f (apparent volume of distribution)): 6730 ± 3280 L; Cl/f (apparent clearance) [1, 8]: 1148.0 L/h and 1148.0 ± 411.0 L/h; Cmax [1, 8]: 735.46 ± 252.29 ng/mL; RE ([3]; Long-term, high level): 1.26%; RE ([4]; high level): 5.00%; RE ([4]; low level): -9.55%"
"O=C(O)/C=C/c1ccccc1O [OCA, o-coumaric acid]",~3 h,231 ± 187 ng/mL,518 ± 299 ng·h/mL,465 ± 299 ng·h/mL,1.45 ± 0.84 h,0.87 ± 0.08,did not provide sufficient levels,606.3 ± 26.8 ng/mL,22.5 ± 0.4 ng/mL,-10.20%,750.6 ± 29.0 ng/mL,25.2 ± 0.4 ng/mL,0.07%,0.79%,-2.79%,-8.32%,729.0 ± 41.7 ng/mL,22.9 ± 1.1 ng/mL,727.4 ± 34.5 ng/mL,22.7 ± 0.6 ng/mL,"T1/2 [1, 8]: 3.50 ± 0.83 ^b h; RE ([4]; high level): -3.01%; RE ([4]; low level): -2.32%"
"O=c1ccc2ccc(O)cc2o1 [7-HCOU, 7-hydroxycoumarin]",~1 h,85 ± 40.1 ng/mL,134 ± 58 ng·h/mL,126 ± 54 ng·h/mL,1.4 ± 0.68 h,0.95 ± 0.05,did not provide sufficient levels,674.4 ± 69.7 ng/mL,11.7 ± 1.1 ng/mL,-6.19%,738.1 ± 8.4 ng/mL,11.7 ± 0.6 ng/mL,-1.59%,-6.24%,-4.69%,-7.29%,714.8 ± 24.9 ng/mL,11.6 ± 0.6 ng/mL,776.4 ± 18.7 ng/mL,11.5 ± 0.7 ng/mL,"Kel (elimination rate constant) [1, 8]: 0.91 ± 0.59 h⁻¹; T1/2 [1, 8]: 1.16 ± 0.82 ^a h; RE ([3]; Long-term, high level): -10.08%; RE ([4]; high level): 3.52%; RE ([4]; low level): -7.73%"
